Experimental data reported in the supplement of paper PMC10307832.

Assays:
Test in all cases: relative viability (nuclei count vs DMSO), 5 days (fraction); higher = more cells survive
[1] = compound: CC1=CC(=CC=C1)NC2=NC(=CS2)C3=CC=NC=C3 + CC(C)C[C@H](NC(=O)[C@H](Cc1ccccc1)NC(=O)c1cnccn1)B(O)O [Bortezomib] (partner 0.002 µM)
Summary of the method: (§1)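 Lung cancer cell lines in 1536-well plates were dosed by pin tool the day after seeding, either with one drug alone or with a fixed anchor-drug dose plus five library-drug doses (not always all listed) in √10 steps. After 5 days, cells were fixed and their nuclei stained in one step (final 0.05% Triton X-100, 1% formaldehyde, 1 ug/ml Hoechst), then counted on 4× images. Relative viability is the nuclei count in treated wells divided by that in vehicle wells. Values are medians of duplicate plates.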

[2] = compound: CC1=CC(=CC=C1)NC2=NC(=CS2)C3=CC=NC=C3 + CC1(C)CCC(c2ccc(Cl)cc2)=C(CN2CCN(c3ccc(C(=O)NS(=O)(=O)c4ccc(N[C@H](CCN5CCOCC5)CSc5ccccc5)c(S(=O)(=O)C(F)(F)F)c4)cc3)CC2)C1 [Navitoclax] (partner 0.5 µM)
Summary of the method: as §1

[3] = compound: CC1=CC(=CC=C1)NC2=NC(=CS2)C3=CC=NC=C3 + C[C@]1(O)C[C@@H](c2nc(-c3ccc4ccc(-c5ccccc5)nc4c3)c3c(N)nccn32)C1 [Linsitinib] (partner 1 µM)
Summary of the method: as §1

Masitinib + Alpelisib = compound: Cc1ccc(NC(=O)c2ccc(CN3CCN(C)CC3)cc2)cc1Nc1nc(-c2cccnc2)cs1 [Masitinib] + Cc1nc(NC(=O)N2CCC[C@H]2C(N)=O)sc1-c1ccnc(C(C)(C)C(F)(F)F)c1 [Alpelisib] (partner 2 µM)
Summary of the method: as §1

UMC-11 gave a relative viability ([1]; first compound 0.08 µM) of 0.761, a relative viability ([1]; first compound 0.253 µM) of 0.839 and a relative viability ([1]; first compound 0.8 µM) of 0.635. For the same cell line, the relative viability ([1]; first compound 2.53 µM) was 0.67, the relative viability ([1]; first compound 8 µM) was 0.686 and the relative viability ([2]; first compound 0.08 µM) was 0.281. It also gave a relative viability ([2]; first compound 0.253 µM) of 0.266, a relative viability ([2]; first compound 0.8 µM) of 0.295 and a relative viability ([2]; first compound 2.53 µM) of 0.348. The relative viability ([2]; first compound 8 µM) was 0.478, the relative viability ([3]; first compound 0.08 µM) was 0.983 and the relative viability ([3]; first compound 0.253 µM) was 1. The relative viability ([3]; first compound 0.8 µM) was 1.01, the relative viability ([3]; first compound 2.53 µM) was 0.977 and the relative viability ([3]; first compound 8 µM) was 1.05. The relative viability (Masitinib + Alpelisib; first compound 0.01 µM) was 0.899, the relative viability (Masitinib + Alpelisib; first compound 0.03162 µM) was 0.713 and the relative viability (Masitinib + Alpelisib; first compound 0.1 µM) was 1.12. For the same cell line, the relative viability (Masitinib + Alpelisib; first compound 0.3162 µM) was 1.17 and the relative viability (Masitinib + Alpelisib; first compound 1 µM) was 1.2.
